Assay results taken from patent publication US20230099031A1, “BIFUNCTIONAL AGENTS FOR PROTEIN RECRUITMENT AND/OR DEGRADATION” (Orionis Biosciences, Inc., priority 2019, published 2023).
Read-outs that look alike come from different tables or passages of the source.

Tests used:
CRBN = target: T1, CRBN (Homo sapiens, UniProt Q96SW2); assay: Competition Assay: MAPPIT-like, competition with trimethoprim-lenalidomide hybrid ligand for binding to CRBN in HEK293T cells; type: cell-based
T1 construct: expressed in transfected cells; host or cells: HEK293T

IKZF1 = target: T2, IKZF1 (Homo sapiens, UniProt Q13422+Q96SW2); assay: Recruitment Assay (MAPPIT-like): IKZF1 recruitment, pSEL-CRBN+pMG1-IKZF1(isoform 7); type: cell-based; details: recruitment of IKZF1, protocol of Example 2; read-out: EC50_IKZF1
T2 construct: expressed in transfected cells; host or cells: HEK293T
Description: (§1) In this experimental set-up, cells are transfected with a construct encoding a CRBN-fusion protein and another one encoding a substrate-fusion protein. Test compound activity is assessed with increasing concentrations of test compounds (dose-response studies) to monitor the ability to promote CRBN-ligand-induced protein interaction.
(§2) Full size proteins are fused for each of the target proteins tested, except in the case of IKZF1 where isoform 7 is used, and BRD4, where isoform 3 is applied. For the study, the following construct combinations are used: IKZF1 recruitment: pSEL-CRBN+pMG1-IKZF1(isoform 7); ASS1 recruitment: pSEL-CRBN+pMG1-ASS1; SALL4 recruitment: pSEL-SALL4+pMG1-CRBN; DHFR recruitment: pCLG-DHFR+pMG1-CRBN; ESR1 recruitment: pSEL-CRBN+pMG1-ESR1; BRD4 recruitment: pSEL-CRBN+pMG1-BRD4(isoform 3). Cells are treated with erythropoietin (Epo; where pSEL-type receptor fusions constructs are used) or leptin (in the case pCLG-type receptor fusion constructs are applied) without or with the indicated dose of test compound at 24 hours after transfection. Luciferase activity is measured 24 hours after test compound treatment using the Luciferase Assay System kit (PROMEGA, Madison, Wis.) with an Ensight plate reader (PERKIN ELMER LIFE SCIENCES, Waltham, Mass.). Data points depict fold induction of the average luciferase activity of triplicate samples from Epo or leptin+test compound treated cells versus Epo or leptin only treated cells. Error bars represent standard deviations. Curves are fit using 4-parameter nonlinear regression in […] PRISM software.

ASS1 = target: T3, ASS1 (Homo sapiens, UniProt P00966+Q96SW2); assay: Recruitment Assay (MAPPIT-like): ASS1 recruitment, pSEL-CRBN+pMG1-ASS1; type: cell-based; details: recruitment of ASS1, protocol of Example 2; read-out: EC50_ASS1
T3 construct: Full size proteins are fused for each of the target proteins tested; expressed in transfected cells; host or cells: HEK293T
Description: as §1, §2

IKZF1, ASS1 and SALL4 = assay: Recruitment assessment: recruitment of any tested substrate from among IKZF1, ASS1 and SALL4 (MAPPIT-like recruitment assays); type: cell-based; details: any tested substrate among IKZF1, ASS1, SALL4 at any tested concentration
DHFR = target: T4, DHFR (UniProt P0ABQ4+Q96SW2); assay: Recruitment Assay (MAPPIT-like): DHFR recruitment to CRBN, pCLG-DHFR+pMG1-CRBN; type: cell-based, E. coli; details: for EC50: HEK293T cells, luciferase 24 hours after compound treatment, read-out: Recruitment EC50 (M), target protein DHFR
T4 construct: Full size proteins are fused for each of the target proteins tested; expressed in transfected cells; host or cells: HEK293T
Description: as §1, §2
Error bars represent standard deviations and curves were fit using 4-parameter nonlinear regression in […] PRISM software.

ESR1 = target: T5, ESR1 (Homo sapiens, UniProt P03372+Q96SW2); assay: Recruitment Assay (MAPPIT-like): ESR1 recruitment, pSEL-CRBN+pMG1-ESR1; type: cell-based; details: HEK293T cells, luciferase 24 hours after compound treatment; read-out: Recruitment EC50 (M), target protein ESR1
T5 construct: Full size proteins are fused for each of the target proteins tested; expressed in transfected cells; host or cells: HEK293T
Description: as §1, with “In this Example 2, a similar MAPPIT-like assay is applied as described in Example 1 to determine test compound-induced binding of a particular substrate protein of interest to CRBN. In” for “In”
Specifically, HEK293T cells are transfected with a plasmid encoding the MAPPIT receptor fusion wherein the protein of interest (CRBN or substrate protein) is genetically linked to a cytoplasmic domain of the leptin receptor, which itself is fused to the extracellular domain of the erythropoietin (Epo) receptor (pSEL-X, where X represents either CRBN or any of the tested substrate proteins of interest) or to the extracellular domain of the leptin receptor (pCLG-X, where X represents either CRBN or any of the tested substrate proteins of interest), a plasmid encoding the MAPPIT gp130 fusion (pMG1-Y, Y being either any of the tested substrate proteins or CRBN) and a STAT3-responsive luciferase-encoding reporter plasmid (pXP2d2-rPAPI-luciferase reporter plasmid), as described (Lievens, et al. “Array MAPPIT: high-throughput interactome analysis in mammalian cells.” Journal of Proteome Research 8.2 (2009): 877-886). Full size proteins are fused for each of the target proteins tested, except in the case of IKZF1 where isoform 7 is used, and BRD4, where isoform 3 is applied. […] Luciferase activity is measured 24 hours after test compound treatment using the Luciferase Assay System kit (PROMEGA, Madison, Wis.) with an Ensight plate reader (PERKIN ELMER LIFE SCIENCES, Waltham, Mass.). […]

[1] = protocol and reagents of Example 1, read-out: IC50 Competition
[2] = HEK293T cells, 300 nM trimethoprim-lenalidomide hybrid ligand, luciferase 24 hours after compound treatment, read-out: Competition IC50

| IC50 (CRBN; [2]) [nM] | EC50 (ESR1) [M] | SMILES | EC50 (DHFR) [M] | also measured |
| --- | --- | --- | --- | --- |
| – | – | Cc1ccc(NC(=O)NCc2ccc3c(c2)CN(C2CCC(=O)NC2=O)C3=O)cc1Cl (stereo not shown) [CC-885, 1-(3-chloro-4-methyl-phenyl)-3-[[2-(2,6-dioxo-3-piperidyl)-1-oxo-isoindolin-5-yl]methyl]urea, reference compound] | – | IC50 (CRBN; [1]): 0.465 nM; EC50 (IKZF1): < 13.7 nM; EC50 (ASS1): 80.1 nM; Recruitment Assessment (IKZF1, ASS1 and SALL4): TRUE |
| – | – | COc1cc(Cc2cnc(N)nc2N)cc(OC)c1OCCCCC(=O)NCCOCCOCCOCCNC(=O)CN1CCN(C(=O)CNc2ccc3c(c2)C(=O)N(C2CCC(=O)NC2=O)C3)C(C)C1 (stereo not shown) [Compound 5.26] | 4.5e-07 | – |
| – | – | COc1cc(Cc2cnc(N)nc2N)cc(OC)c1OCCCCC(=O)NCCOCCOCCOCCNC(=O)c1ccc2c(c1)CN(C(=O)CNc1ccc3c(c1)C(=O)N(C1CCC(=O)NC1=O)C3)C2 (stereo not shown) [Compound 5.46] | 1.44e-08 | – |
| 1390 | 7.35e-07 | CC/C(=C(\c1ccccc1)c1ccc(OCCN(C)CC(=O)NCCOCCOCCOCCOCCNC(=O)COc2cccc3c2CN(C2CCC(=O)NC2=O)C3=O)cc1)c1ccccc1 (stereo not shown) [Compound 5.53] | – | – |
| 838 | 1.35e-07 | CC/C(=C(\c1ccccc1)c1ccc(OCCN(C)CC(=O)NCCOCCOCCNC(=O)COc2cccc3c2CN(C2CCC(=O)NC2=O)C3=O)cc1)c1ccccc1 (stereo not shown) [Compound 5.54] | – | – |
| 1050 | 4.42e-07 | CC/C(=C(\c1ccccc1)c1ccc(OCCN(C)CC(=O)NCCOCCOCCOCCNC(=O)COc2cccc3c2CN(C2CCC(=O)NC2=O)C3=O)cc1)c1ccccc1 (stereo not shown) [Compound 5.55] | – | – |
| – | – | O=C1CCC(N2Cc3ccc(NC(=O)c4cnc5[nH]cnc5c4)cc3C2=O)C(=O)N1 (stereo not shown) [Compound C80394, N-[2-(2,6-dioxo-3-piperidyl)-3-oxo-isoindolin-5-yl]-3H-imidazo[4,5-b]pyridine-6-carboxamide] | – | IC50 (CRBN; [1]): 7990 nM; Recruitment Assessment (IKZF1, ASS1 and SALL4): TRUE |
| – | – | COc1cc(Cc2cnc(N)nc2N)cc(OC)c1OCCCCC(=O)NCCOCCOCCOCCn1cc(CCC(=O)Nc2cccc3c2CN(C2CCC(=O)NC2=O)C3=O)nn1 (stereo not shown) [TMP-LEN, Trimethoprim-lenalidomide] | 1.86e-08 | hybrid ligand-induced binding between CRBN and DHFR (MAPPIT signal, FIG. 3) (DHFR; CRBN as gp130 fusion, DHFR linked to MAPPIT chimeric membrane receptor): dose-dependent signal can be observed |
